Reference: US4760148A, “5-aralkyl substituted 2H-benzotriazoles and stabilized compositions” (Ciba-Geigy Corporation, priority 1985, dated 1988)

Columns and labels:
[1] = in words, prior art patents; cited from earlier work
[2] = in words, prior art patents; cited from earlier work; remark: listed apart in the source
[3] = Solubility of benzotriazole stabilizers; type: physicochemical; settings: 25° C.
Excerpt: The benzotriazole stabilizers are classically materials with relatively low solubility in common organic solvents. This is particularly the case where the benzotriazole is substituted in the 2-phenyl ring with aralkyl groups intended to decrease stabilizer volatility during processing and use.

[4] = Thermal gravimetric analysis (resistance to loss of benzotriazole stabilizers); settings: for Time (minutes) to 50% Weight Loss of Stabilizer: isothermal at 280° C.; for Time (minutes) to 50% Weight Loss of Stabilizer / Temperature °C. to 10% Weight Loss of Stabilizer / Temperature °C. to 50% Weight Loss of Stabilizer: 100 ml nitrogen/minute; for Temperature °C. to 10% Weight Loss of Stabilizer / Temperature °C. to 50% Weight Loss of Stabilizer: scanning at 10°(C.) per minute; for resistance to thermogravimetric loss: in words, compared with prior art benzotriazole F
Description: A number of 2-aryl-2H-benzotriazole light stabilizers are subjected to thermal gravimetric analysis with a flow rate of 100 ml nitrogen/minute both isothermally at 280° C. to indicate the time in minutes to reach 50% weight loss of the stabilizer as well as in a scanning mode at a heating rate of 10° (C.) per minute to ascertain the temperature at which 10% and 50% weight loss of stabilizer are observed.

[5] = Absorbance at 340nm (extinction coefficients); type: physicochemical; settings: for Specific Extinction Coefficient a: equal weight basis
Excerpt: The compounds of this invention show unanticipated enhancement of absorbance at 340nm as can be seem from a comparison of molar extinction coefficients E compared to state of the art compund F which lacks an aralkyl-substituent in the 5-position. In many cases the enhanced absorbance is also seen when products are compared i.e. in terms of Specific Extinction Coefficients a on an equal weight rather than molar basis.
Molar Extinction Coefficient E = a × molecular weight

[6] = Stabilizer loss on milling into polycarbonate resin; settings: milling at 400° F. (240° C.), 15 minutes, spectrophotometric
Description: Samples of light stabilizers are incorporated into polycarbonate resin by milling at 400° F. ([…]) for a 15 minute period. […] At the end of the milling period the percent stabilizer loss is determined spectrophotometrically.

[7] = Solubility of crystalline modification forms; type: physicochemical; settings: organic solvents including xylene and methyl amyl ketone

SMILES	solubility in substrates and processing solvents [1]	resistance to loss by volatilization [2]	Solubility in Butyl Cellosolve Acetate [3]	Solubility in Heptane [3]	Solubility in Methyl Amyl Ketone [3]	Solubility in Xylene [3]	Time (minutes) to 50% Weight Loss of Stabilizer [4]	Temperature °C. to 10% Weight Loss of Stabilizer [4]	Temperature °C. to 50% Weight Loss of Stabilizer [4]	Molar Extinction Coefficient E [5]	Specific Extinction Coefficient a [5]	% loss (by weight) of stabilizer [6]	resistance to thermogravimetric loss [4]	solubility of crystalline form melting at 114°-116° C. versus the other crystalline form [7]	compatibility / performance in substrates [1]
CC(C)(C)CC(C)(C)c1cc(-n2nc3ccccc3n2)c(O)c(C(C)(C)CC(C)(C)C)c1 [2-(2-hydroxy-3,5-di-tert-octylphenyl)-2H-benzotriazole]	enhanced solubility in processing solvents and substrates	did not have outstanding resistance to loss by volatilization	–	–	–	–	–	–	–	–	–	–	–	–	–
CCC(C)(C)c1cc(-n2nc3ccccc3n2)c(O)c(C(C)(C)CC)c1 [Compound B, 2(2-hydroxy-3,5-di-tert-amylphenyl)-2H--benzotriazole]	–	–	19 grams per 100 grams solvent	23 grams per 100 grams solvent	34 grams per 100 grams solvent	70 grams per 100 grams solvent	0.9 min	200 °C	233 °C	–	–	–	–	–	–
CC(C)(c1ccccc1)c1cc(-n2nc3ccccc3n2)c(O)c(C(C)(C)c2ccccc2)c1 [Compound F, 2-[2-hydroxy-3,5-di-(alpha,alpha-dimethylbenzyl)phenyl]-2 H-benzotriazole]	relatively low solubility in some substrates and processing solvents	superior resistance to loss from stabilized compositions during high temperature processing	14 grams per 100 grams solvent	1.5 grams per 100 grams solvent	6 grams per 100 grams solvent	16 grams per 100 grams solvent	24 min	300 °C	340 °C	15100 L/mol/cm	34 L/g/cm	< 3%	–	–	–
CC(C)(C)CC(C)(C)c1cc(-n2nc3ccccc3n2)c(O)c(C(C)(C)c2ccccc2)c1 [Compound G, 2-[2-hydroxy-3-(alpha,alpha-dimethylbenzyl)-5-tert-octylphenyl]-2H-benzotriazole]	–	–	19 grams per 100 grams solvent	9.7 grams per 100 grams solvent	33 grams per 100 grams solvent	82 grams per 100 grams solvent	7.4 min	267 °C	307 °C	–	–	–	–	–	–
CC(C)(C)c1cc(-n2nc3ccc(C(C)(C)c4ccccc4)cc3n2)c(O)c(C(C)(C)C)c1 [Example 7, 5-alpha,alpha-Dimethylbenzyl-2-(2-hydroxy-3,5-di-tert-butylphenyl)-2H-benzotriazole]	–	–	61 grams per 100 grams solvent	97 grams per 100 grams solvent	128 grams per 100 grams solvent	197 grams per 100 grams solvent	19 min	295 °C	338 °C	19000 L/mol/cm	43 L/g/cm	< 3%	similar	–	–
CC(C)(c1ccccc1)c1cc(-n2nc3ccc(C(C)(C)c4ccccc4)cc3n2)c(O)c(C(C)(C)c2ccccc2)c1 [Example 21, 5-alpha,alpha-Dimethylbenzyl-2-[2-hydroxy-3,5-di (alpha, alpha-dimethylbenzyl)phenyl]-2H-benzotriazole]	–	–	–	–	–	–	2040 min	365 °C	412 °C	19500 L/mol/cm	28 L/g/cm	< 3%	very much more resistant to thermogravimetric loss	far greater solubility in many organic solvents	–
CC(C)(C)CC(C)(C)c1cc(-n2nc3ccc(C(C)(C)c4ccccc4)cc3n2)c(O)c(C(C)(C)c2ccccc2)c1 [Example 22, 5-alpha,alpha-Dimethylbenzyl-2-(2-hydroxy-3-alpha,alpha-dimethylbenzyl-5-tert-octylphenyl)-2H-benzotriazole]	–	–	–	–	–	–	840 min	340 °C	387 °C	18500 L/mol/cm	33 L/g/cm	–	–	–	–
CCC(C)(C)c1cc(-n2nc3ccc(C(C)(C)c4ccccc4)cc3n2)c(O)c(C(C)(C)CC)c1 [Example 23]	–	–	> 100 grams per 100 grams solvent	> 100 grams per 100 grams solvent	> 100 grams per 100 grams solvent	> 100 grams per 100 grams solvent	33 min	285 °C	325 °C	19100 L/mol/cm	41 L/g/cm	–	–	–	–
CC(C)(C)CC(C)(C)c1cc(-n2nc3ccc(C(C)(C)c4ccccc4)cc3n2)c(O)c(C(C)(C)CC(C)(C)C)c1 [Example 24, 5-alpha,alpha-Dimethylbenzyl-2-(2-hydroxy-3,5-di-tert-octylphenyl)-2H-benzotriazole]	–	–	–	–	–	–	40 min	308 °C	348 °C	17400 L/mol/cm	31 L/g/cm	–	–	–	–
CC(C)(c1ccccc1)c1cc(-n2nc3ccc(Cc4ccccc4)cc3n2)c(O)c(C(C)(C)c2ccccc2)c1 [Example 26, 5-Benzyl-2-[2-hydroxy-3,5-di-(alpha,alpha-dimethylbenzyl)phenyl]-2H-benzotriazole]	–	–	–	–	–	–	3780 min	360 °C	405 °C	18500 L/mol/cm	35 L/g/cm	–	very much more resistant to thermogravimetric loss	–	–
Cc1ccc(O)c(-n2nc3ccccc3n2)c1 [Stabilizer A, 2(2-hydroxy-5-methylphenyl)-2H--benzotriazole]	–	–	–	–	–	–	0.75 min	182 °C	215 °C	–	–	–	–	–	–
CCC(C)c1cc(-n2nc3ccccc3n2)c(O)c(C(C)(C)C)c1 (stereo not shown) [Stabilizer C, 2(2-hydroxy-3-tert-butyl-5-sec-butylphenyl)-2H--benzotriazole]	–	–	–	–	–	–	1.0 min	210 °C	247 °C	–	–	–	–	–	–
CC(C)(C)CC(C)(C)c1ccc(O)c(-n2nc3ccccc3n2)c1 [Stabilizer D, 2-(2-hydroxy-5-tert-octylphenyl)-2H-benzotriazole]	–	–	–	–	–	–	1.9 min	225 °C	260 °C	–	–	40%	–	–	superior compatibility and performance in polyethylene
Cc1cc(C(C)c2ccccc2)c(O)c(-n2nc3ccccc3n2)c1 (stereo not shown) [Stabilizer E, 2-[2-hydroxy-3-(1-phenylethyl)-5-methylphenyl]-2H-benzotriazole]	–	better resistance to loss by volatilization during processing	–	–	–	–	3.0 min	250 °C	290 °C	–	–	–	–	–	better compatibility
